Source: patent US20250230147A1, “LACTAMS AS CBL-B INHIBITORS” (Genentech, Inc., priority 2021, published 2025)

How the values were obtained:
[1] = In vivo pharmacokinetics, mouse; set-up: species or system CD-1 mice; conditions: male, CD-1, plasma
Description: The pharmacokinetics of test compounds were evaluated following a single intravenous bolus (IV) of solution at a dose of 0.2-1 mg/kg and oral administration (PO) of solution/suspension at doses of 1-5 mg/kg in male cynomolgus monkey, beagle dogs, Sprague Dawley rats, or CD-1 mice using a parallel study design. Blood samples for the IV dose group were collected prior to administration (predose) and at 0.033, 0.083, 0.25, 0.5, 1, 3, 6, 9 and 24 hours post dose. Blood samples for PO dose groups were collected prior to administration (predose) and at 0.083, 0.25, 0.5, 1, 3, 6, 9 and 24 hours post dose. For the IV group, urine was collected from each animal at predose and from 0-6 and 6-24 hours post dose. The vehicle used for IV dose groups was a combination of PEG400 with citrate buffer (pH 5.0) or PEG400/Cremphor with DMSO/H2O, and for PO groups was MCT.
Plasma and urine concentrations were quantitated at Genentech Inc. using a non-validated LC/MS/MS method. The lower limit of quantitation (LLOQ) of the plasma and urine assays was 0.005 μM. PK parameters were determined by non-compartmental methods using WinNonlin (version 5.2, Pharsight Corporation, Mountain View, CA).

Cbl-b = Cbl-b (Homo sapiens (Human), UniProt Q13191); assay: Cbl-b LCK Ub TR-FRET assay (Cbl-b Lck HTRF); format: biochemical
Cbl-b, sequence (Q13191 40-426): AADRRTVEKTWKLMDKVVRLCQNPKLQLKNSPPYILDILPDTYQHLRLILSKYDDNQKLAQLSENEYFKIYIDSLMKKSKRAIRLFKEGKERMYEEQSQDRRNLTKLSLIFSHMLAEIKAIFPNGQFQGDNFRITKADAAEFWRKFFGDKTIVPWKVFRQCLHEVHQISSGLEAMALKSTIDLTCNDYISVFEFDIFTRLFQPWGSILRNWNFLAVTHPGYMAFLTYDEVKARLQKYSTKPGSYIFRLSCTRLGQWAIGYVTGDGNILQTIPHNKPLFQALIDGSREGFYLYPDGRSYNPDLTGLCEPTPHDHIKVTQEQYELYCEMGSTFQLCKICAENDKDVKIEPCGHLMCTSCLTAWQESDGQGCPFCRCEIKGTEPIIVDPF
How it was run: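 Biotin-Cbl-b preincubated with compound (10-point 3-fold series) 60 min, then His-LCK with 1 mM ATP (2× mixture) added for 90 min at room temperature. Ubiquitination detected by TR-FRET using HA-ubiquitin/UBE2D2 adduct, anti-HA-D2 and streptavidin-Eu; IC50 normalised to no-LCK and DMSO controls.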

[2] = Liver microsomes metabolic stability, rat; format: in vitro ADME; conditions: 1 μM compound, 0.5 mg/mL microsomal protein
Description: (§1) Metabolic stability of test compounds was evaluated in pooled rat, mouse, dog, and cynomolgus monkey liver microsomes (BD Biosciences, San Jose, CA). The incubation conditions were as follows: 1 μM of the tested compound, 1 mM NADPH, 0.5 mg/mL microsomal protein in 0.1 M potassium phosphate buffer (pH 7.4). Following a 5-minute pre-incubation period, the enzymatic reactions were initiated by the addition of NADPH and test compound to the microsomes diluted in phosphate buffered saline. The mixtures were incubated at 37° C. for 0, 20, 40, and 60 min.
(§2) Compound concentrations were assessed by LC-MS/MS. Intrinsic clearance based upon microsomal stability data was determined using a substrate depletion method and scaled to hepatic clearance using the well-stirred model (Obach, R. S.; Baxter, J. G.; Liston, T. E.; Silber, B. M.; Jones, B. C.; Macintyre, F.; Rance, D. J.; Wastall, P., “The Prediction of Human Pharmacokinetic Parameters from Preclinical and in vitro Metabolism Data”, J. Pharmacol. Exp. Ther., (1997), 283 (1), 46-58).

mouse hepatocytes = assay: Hepatocyte metabolic stability, mouse; format: in vitro ADME; conditions: 1.0 μM compound, 0.5 million cells/mL
Description: (§3) Metabolic stability assays of test compounds were evaluated in cryopreserved pooled rat, mouse, dog, and cynomolgus monkey hepatocytes (CellzDirect; Durham, NC, USA). Membrane integrity of the cells was assessed by trypan blue exclusion. Test compounds (1.0 μM with 0.1% dimethylsulfoxide) were incubated with cells (0.5 million cells/mL) at 37° C. in a 95% air/5% CO2 atmosphere for 0, 20, 40, or 60 minutes. Concentrations of test compounds in hepatocyte incubations were determined by LC/MS/MS. Intrinsic clearance was determined using a substrate depletion method and scaled to hepatic clearance using the well-stirred model as described above for the liver microsomes metabolic stability assays.

rat hepatocytes = assay: Hepatocyte metabolic stability, rat; format: in vitro ADME; conditions: 1.0 μM compound, 0.5 million cells/mL
Description: as §3

[3] = Liver microsomes metabolic stability, mouse; format: in vitro ADME; conditions: 1 μM compound, 0.5 mg/mL microsomal protein
Description: as §1, §2

c-Cbl = c-Cbl (Homo sapiens (Human), UniProt P22681); assay: C-Cbl LCK Ub TR-FRET assay (c-cbl Lck HTRF); format: biochemical
c-Cbl, sequence (P22681 47-435): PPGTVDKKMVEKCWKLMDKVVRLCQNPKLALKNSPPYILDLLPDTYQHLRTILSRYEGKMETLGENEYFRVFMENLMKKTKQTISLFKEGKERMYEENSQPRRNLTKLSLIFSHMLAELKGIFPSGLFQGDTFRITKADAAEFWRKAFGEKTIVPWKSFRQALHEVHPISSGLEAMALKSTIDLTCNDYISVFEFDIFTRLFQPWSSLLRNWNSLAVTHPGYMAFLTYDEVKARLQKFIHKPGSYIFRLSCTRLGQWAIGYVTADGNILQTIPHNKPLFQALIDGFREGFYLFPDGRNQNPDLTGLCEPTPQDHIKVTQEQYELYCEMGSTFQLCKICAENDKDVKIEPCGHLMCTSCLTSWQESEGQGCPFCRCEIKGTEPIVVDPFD
How it was run: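 Detection reagents added, brief spin, 20 min RT. IC50 fit normalized to no-LCK (low) and DMSO (high) controls.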

[4] = Liver microsomes metabolic stability, dog; format: in vitro ADME; conditions: 1 μM compound, 0.5 mg/mL microsomal protein
Description: as §1, §2

bioavailability ([1]; PO 1-5 mg/kg, read-out: Oral Bioavailability (F %)): 2%
clearance ([1]; single intravenous bolus 0.2-1 mg/kg, read-out: Mouse CL): 40 mL/min/kg
IC50 (Cbl-b): 130 nM
Liver microsomes Pred. CLhep (mL/min/kg) Rat/Mouse/Dog [2]: 7 mL/min/kg
Hepatocyte Pred. CLhep (mL/min/kg) Rat/Mouse/Dog (mouse hepatocytes): 36 mL/min/kg
Hepatocyte Pred. CLhep (mL/min/kg) Rat/Mouse/Dog (rat hepatocytes): 12 mL/min/kg
Liver microsomes Pred. CLhep (mL/min/kg) Rat/Mouse/Dog [3]: 27 mL/min/kg
IC50 (c-Cbl): 270 nM
(fold-selectivity) (c-Cbl; C-cbl Lck HTRF IC50 relative to Cbl-b Lck HTRF IC50): 2.1x
Liver microsomes Pred. CLhep (mL/min/kg) Rat/Mouse/Dog [4]: 14 mL/min/kg
SMILES: Cn1cnnc1[C@H](F)C1(c2cccc(N3Cc4c(cc(CN5CC6CC5C6)cc4C(F)(F)F)C3=O)c2)COC1 [Compound 86, (R)-6-((2-azabicyclo[2.1.1]hexan-2-yl)methyl)-2-(3-(3-(fluoro(4-methyl-4H-1,2,4-triazol-3-yl)methyl)oxetan-3-yl)phenyl)-4-(trifluoromethyl)isoindolin-1-one]
